Results published in US7745375B2, “Synergistic insecticide mixtures” (Bayer CropScience AG, priority 2003, dated 2010).

Key:
Type in all cases: in vivo
[1] = system: Heliothis armigera; assay: Example L Heliothis armigera test (soya bean shoots dipped); details: single active compound, 4 ppm
Experimental: (§1) To prepare a suitable active compound preparation, 1 part by weight of active compound is mixed with the stated amounts of solvent and emulsifier, and the concentrate is diluted with emulsifier-comprising water to the desired concentration.
Soya bean shoots (Glycine max) are treated by being dipped into the active compound preparation of the desired concentration and populated with Heliothis armigera caterpillars while the leaves are still moist.
(§2) After the desired period of time, the destruction is determined in %. In this context, 100% means that all of the caterpillars were destroyed; 0% means that no caterpillars were destroyed.

[2] = system: Bemisia tabaci; assay: Example K Bemisia tabaci test (cotton plants sprayed); details: single active compound, 0.16 ppm
Experimental: as §1
(§3) Cotton plants (Gossypium hirsutum) which are infested with whitefly (Bemisia tabaci) eggs, larvae and puparia are sprayed with the active compound preparation of the desired concentration.
(§4) After the desired period of time, the destruction is determined in %. In this context, 100% means that all of the whiteflies were destroyed; 0% means that no whiteflies were destroyed.

[3] = system: Myzus persicae; assay: Example D Myzus persicae test (cabbage leaves dipped); details: single active compound, 0.8 ppm
Experimental: as §1
(§5) Cabbage leaves (Brassica oleracea) which are severely infested with green peach aphids (Myzus persicae) are treated by being dipped into the active compound preparation of the desired concentration.
(§6) After the desired period of time, the destruction is determined in %. In this context, 100% means that all of the aphids were destroyed; 0% means that no aphids were destroyed.

[4] = system: Bemisia tabaci; assay: Example B Bemisia tabaci test (cotton plants sprayed); details: single active compound, 0.8 ppm
Experimental: as §1, §3, §4

[5] = system: Spodoptera exigua; assay: Example N Spodoptera exigua test (cabbage leaves dipped); details: single active compound, 20 ppm
Experimental: as §1
(§7) Cabbage leaves (Brassica oleracea) are treated by being dipped into the active compound preparation of the desired concentration and populated with army worm caterpillars (Spodoptera exigua) while the leaves are still moist.
as §2

[6] = system: Heliothis armigera; assay: Example C Heliothis armigera test (soya bean shoots dipped); details: single active compound, 4 ppm
Experimental: as §1
Soya bean shoots (Glycine max) are treated by being dipped into the active compound preparation of the desired concentration and populated with Heliothis armigera caterpillars while the leaves are still damp.
as §2

[7] = system: Plutella xylostella (normal strain); assay: Example E Plutella xylostella test (normal strain); details: single active compound, 20 ppm
Experimental: as §1
Cabbage leaves (Brassica oleracea) are treated by being dipped into the active compound preparation of the desired concentration and populated with diamondback moth caterpillars (Plutella xylostella/sensitive strain) while the leaves are still moist.
as §2

[8] = system: Myzus persicae; assay: Example M Myzus persicae test (cabbage leaves dipped); details: single active compound, 0.16 ppm
Experimental: as §1, §5, §6

[9] = system: Aphis gossypii; assay: Example A Aphis gossypii test (cotton leaves dipped); details: single active compound, 0.8 ppm
Experimental: as §1
Cotton leaves (Gossypium hirsutum) which are severely infested with cotton aphids (Aphis gossypii) are treated by being dipped into the active compound preparation of the desired concentration.
as §6

[10] = system: Spodoptera exigua; assay: Example I Spodoptera exigua test (cabbage leaves dipped); details: single active compound, 100 ppm
Experimental: as §1, §7, §2

[11] = system: Plutella xylostella/normal strain; assay: Example H Plutella test (normal strain); details: single active compound
Experimental: as §1
Cabbage leaves (Brassica oleracea) are treated by being dipped into the active compound preparation of the desired concentration and populated with diamondback moth caterpillars (Plutella xylostella/normal strain) while the leaves are still moist.
as §2

[12] = system: Heliothis armigera; assay: Example F Heliothis armigera test (soya bean shoots dipped); details: single active compound
Experimental: as §1
Soya bean shoots (glycine max) are treated by being dipped into the active compound preparation of the desired concentration and populated with Heliothis armigera caterpillars while the leaves are still moist.
as §2

[13] = system: Myzus persicae; assay: Example G Myzus test (cabbage leaves dipped); details: single active compound, 0.16 ppm
Experimental: as §1, §5, §6

[14] = system: Spodoptera frugiperda; assay: Example J Spodoptera frugiperda test (cabbage leaves dipped); details: single active compound, 0.8 ppm
Experimental: as §1
Cabbage leaves (Brassica oleracea) are treated by being dipped into the active compound preparation of the desired concentration and populated with army worm caterpillars (Spodoptera frugiperda) while the leaves are still moist.
as §2

SMILES	Destruction in % after 6 d [1] [%]	Destruction in % after 10 d [2] [%]	Destruction in % after 6 d [3] [%]	Destruction in % after 12 d [4] [%]	Destruction in % after 6 d [5] [%]	Destruction in % after 6 d [6] [%]	Destruction in % after 6 d [7] [%]	Destruction in % after 6 d [8] [%]	Destruction in % after 6 d [9] [%]	Destruction in % after 7 d [10] [%]	Destruction in % after 7 d ([11]; 20 ppm) [%]	Destruction in % after 7 d ([12]; 4 ppm) [%]	Destruction in % after 6 d [13] [%]	Destruction in % after 7 d [14] [%]	Destruction in % after 7 d ([11]; 4 ppm) [%]	Destruction in % after 7 d ([12]; 0.8 ppm) [%]
CN/C(=N\[N+](=O)[O-])NCc1cnc(Cl)s1 [Clothianidin, clothianidin]	0	5	65	35	10	45	60	0	0							
O=[N+]([O-])/N=C1\NCCN1Cc1ccc(Cl)nc1 [Imidacloprid, imidacloprid]	10	5			10			50		45	15	10	10	20		
N#C/N=C1\SCCN1Cc1ccc(Cl)nc1 [Thiacloprid, thiacloprid]			20	80		35	15		25	0			10	10	0	0
